Literature values as cited in patent US20250295106A1, “HERBICIDAL COMPOSITION” (NOURYON CHEMICALS INTERNATIONAL B.V., priority 2024, published 2025).

Settings: acid form, at 25° C.

O=C(O)CNCP(=O)(O)O [glyphosate, N-phosphonomethylglycine]
solubility in water: 1.16 % by weight
